{"source": "patent US20060069132A1", "about": "“Azolecarboxamide herbicides” (priority 2004, published 2006)", "key": {"littleseed canarygrass": {"tested_on": "littleseed canarygrass", "experiment": "Test F pre-/postemergence herbicide test", "assay_type": "in vivo, Phalaris minor", "excerpt": "(§1) Seeds of plant species selected from annual blugrass (Poa annua L.), blackgrass (Alopecurus myosuroides Huds.), catchweed bedstraw (Gallium aparine L.), common chickweed (Stellaria media (L.) Vill./Cyr.), downy bromegrass (Bromus tectorum L.), green foxtail (Setaria viridis (L.) Beauv.), Italian ryegrass (Lolium multiflorum Lam.), kochia (Kochia scoparia (L.). Schrad.), lambsquarters (Chenopodium album L.), littleseed canarygrass (Phalaris minor Retz.), pigweed (Amaranthus retroflexus L.), Russian thistle (Salsola kali L. ssp. Ruthenica (Iljin) Soo), wild buckwheat (Polygonum convolvulus L.), wild mustard (Sinapis arvensis L.), wild oat (Avena fatua L.), windgrass (Apera spica-venti (L.) Beauv.), winter barley (Hordeum vulgare L.), and wheat (Triticum aestivum L.) were planted and treated preemergence with test chemicals formulated in a non-phytotoxic solvent mixture which included a surfactant.\n(§2) At the same time, plants selected from these crop and weed species were treated with postemergence applications of some of the test chemicals formulated in the same manner. Plants ranged in height from 2 to 18 cm (1- to 4-leaf stage) for postemergence treatments. Treated plants and controls were maintained in a greenhouse for 12 to 14 days, after which time all species were compared to controls and visually evaluated. Plant response ratings, summarized in Table F, are based on a scale of 0 to 100 where 0 is no effect and 100 is complete control. A dash (-) response means no test result."}, "wheat": {"tested_on": "wheat", "experiment": "Test F pre-/postemergence herbicide test", "assay_type": "in vivo, Triticum aestivum", "excerpt": "as §1, §2"}}, "data": [{"compound": "CCn1nc(C(C)(C)C)cc1C(=O)Nc1cc(C(=O)OC(C)C)c(F)cc1F", "note": "[Compound 248]", "values": [{"measurement": "Plant response rating (0-100), Canarygrass", "setting": "littleseed canarygrass; Postemergence, 31 g ai/ha", "result": 35}, {"measurement": "Plant response rating (0-100), Canarygrass", "setting": "littleseed canarygrass; Postemergence, 62 g ai/ha", "result": 40}, {"measurement": "Plant response rating (0-100), Canarygrass", "setting": "littleseed canarygrass; Postemergence, 125 g ai/ha", "result": 40}, {"measurement": "Plant response rating (0-100), Canarygrass", "setting": "littleseed canarygrass; Postemergence, 250 g ai/ha", "result": 45}, {"measurement": "Plant response rating (0-100), Canarygrass", "setting": "littleseed canarygrass; Preemergence, 31 g ai/ha", "result": 40}, {"measurement": "Plant response rating (0-100), Canarygrass", "setting": "littleseed canarygrass; Preemergence, 62 g ai/ha", "result": 45}, {"measurement": "Plant response rating (0-100), Canarygrass", "setting": "littleseed canarygrass; Preemergence, 250 g ai/ha", "result": 75}, {"measurement": "Plant response rating (0-100), Wheat", "setting": "wheat; Postemergence, 31 g ai/ha", "result": 0}, {"measurement": "Plant response rating (0-100), Wheat", "setting": "wheat; Postemergence, 62 g ai/ha", "result": 5}, {"measurement": "Plant response rating (0-100), Wheat", "setting": "wheat; Postemergence, 125 g ai/ha", "result": 5}, {"measurement": "Plant response rating (0-100), Wheat", "setting": "wheat; Postemergence, 250 g ai/ha", "result": 20}, {"measurement": "Plant response rating (0-100), Wheat", "setting": "wheat; Preemergence, 31 g ai/ha", "result": 0}, {"measurement": "Plant response rating (0-100), Wheat", "setting": "wheat; Preemergence, 62 g ai/ha", "result": 0}, {"measurement": "Plant response rating (0-100), Wheat", "setting": "wheat; Preemergence, 125 g ai/ha", "result": 0}, {"measurement": "Plant response rating (0-100), Wheat", "setting": "wheat; Preemergence, 250 g ai/ha", "result": 10}]}]}
